According to publication PMC8979739, “Phytochemical Profiling of the Leaf Extract of Ximenia americana var. caffra and Its Antioxidant, Antibacterial, and Antiaging Activities In Vitro and in Caenorhabditis elegans: A Cosmeceutical and Dermatological Approach” (Oxidative Medicine and Cellular Longevity, 2022):
Read-outs that look alike come from different tables or passages of the source.

Experiments:
[1] = molecular target: Porcine pancreatic elastase (Sus scrofa, UniProt P00772); test: Elastase inhibition; assay type: biochemical
Sequence of Porcine pancreatic elastase (P00772 27-266): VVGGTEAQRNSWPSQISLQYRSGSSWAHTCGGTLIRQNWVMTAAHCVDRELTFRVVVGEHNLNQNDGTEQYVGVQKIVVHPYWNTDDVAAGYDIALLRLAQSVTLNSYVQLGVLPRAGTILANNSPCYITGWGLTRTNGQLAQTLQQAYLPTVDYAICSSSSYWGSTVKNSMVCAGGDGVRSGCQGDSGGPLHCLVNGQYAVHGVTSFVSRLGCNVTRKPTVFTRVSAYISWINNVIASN
Description: This assay was performed according to a previous study. Porcine pancreatic elastase was used in this assay at stock concentration of 3.33 mg/mL in sterile water. N-Succinyl-[…]-nitroanilide ([…]) was used as a substrate and dissolved in buffer to make up 1.6 mM solution. A serial dilution of the extract with amount of 50 μL each was incubated with the enzyme for 15 min, and the substrate was added subsequently and makes up the final reaction mixture of 250 μL. Absorbance value was measured at 400 nm using a microplate reader. Each measurement was made in triplicate. The percentage of elastase inhibition (%) was calculated according to the formula: inhibition (%) = [(Acontrol - Asample/Acontrol) × 100]. […] A control: absorbance value of the elastase activity from negative control (solution without samples)

[2] = molecular target: Collagenase from Clostridium histolyticum; test: Collagenase inhibition; assay type: biochemical; settings: mean ± SD
Description: The assay was performed according to a previous study. Collagenase was obtained from Clostridium histolyticum (ChC—EC.3.4.23.3), and the assay was performed in 50 mM Tricine buffer consisting of 400 mM NaCl and 10 mM CaCl2 (pH 7.5). Collagenase was dissolved in the buffer to achieve an enzyme activity concentration of 0.8 unit/mL, and the synthetic substrate N-[3-(2-furyl) acryloyl]-Leu-Gly-Pro-Ala (FALGPA) was dissolved in the buffer to make up the final concentration of 2 mM. Serial diluted samples were incubated with the enzyme for 15 min. After that, the substrate was added to each serial solution. Absorbance was measured using a microplate reader (Costar, 96) at 490 nm. Each measurement was made in triplicate. Percentage of collagenase inhibition (%) was calculated according to the formula: inhibition (%) = [(Acontrol − Asample/Acontrol) × 100].
A sample: absorbance value of the collagenase activity from samples or positive control (quercetin)
A control: absorbance value of the collagenase activity from negative control (solution without samples)

FRAP assay = test: FRAP assay
Description: (§1) Total phenolic content was estimated using the Folin–Ciocalteu method as described in a previous study, while antioxidant activity was determined using two colorimetric methods, DPPH assay and FRAP assay. The analysis was performed as in the previous study.

mushroom tyrosinase = mushroom tyrosinase (Agaricus bisporus, UniProt C7FF04); test: Tyrosinase inhibition; assay type: biochemical; settings: mean ± SD
Sequence of mushroom tyrosinase (C7FF04 2-392): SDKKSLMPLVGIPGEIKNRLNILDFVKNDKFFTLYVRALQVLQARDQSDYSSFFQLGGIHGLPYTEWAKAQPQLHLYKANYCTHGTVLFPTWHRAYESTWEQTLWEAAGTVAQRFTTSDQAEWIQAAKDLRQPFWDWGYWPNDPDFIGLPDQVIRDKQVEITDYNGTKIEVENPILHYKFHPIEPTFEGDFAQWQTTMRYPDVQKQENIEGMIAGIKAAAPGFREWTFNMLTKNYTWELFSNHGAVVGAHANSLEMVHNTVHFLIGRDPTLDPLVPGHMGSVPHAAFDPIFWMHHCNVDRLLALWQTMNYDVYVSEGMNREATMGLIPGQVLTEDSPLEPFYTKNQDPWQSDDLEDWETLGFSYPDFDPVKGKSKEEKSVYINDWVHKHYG
Description: This assay was performed using mushroom tyrosinase and L-DOPA as substrates, according to a previous study with slight modifications. […] After adding L-DOPA, the reaction mixture was monitored at 475 nm for dopachrome formation using a microplate reader (Costar, 96). Each measurement was made in triplicate. The percentage of tyrosinase inhibition (%) was calculated according to the formula: inhibition (%) = [(Acontrol − Asample/Acontrol) × 100]. […] A control: absorbance value of the tyrosinase activity from negative control (solution without samples)

hyaluronidase = molecular target: T1, hyaluronidase (Bos taurus, UniProt Q2YDK3); test: Hyaluronidase inhibition; assay type: biochemical; settings: mean ± SD
T1 sequence (Q2YDK3 36-553): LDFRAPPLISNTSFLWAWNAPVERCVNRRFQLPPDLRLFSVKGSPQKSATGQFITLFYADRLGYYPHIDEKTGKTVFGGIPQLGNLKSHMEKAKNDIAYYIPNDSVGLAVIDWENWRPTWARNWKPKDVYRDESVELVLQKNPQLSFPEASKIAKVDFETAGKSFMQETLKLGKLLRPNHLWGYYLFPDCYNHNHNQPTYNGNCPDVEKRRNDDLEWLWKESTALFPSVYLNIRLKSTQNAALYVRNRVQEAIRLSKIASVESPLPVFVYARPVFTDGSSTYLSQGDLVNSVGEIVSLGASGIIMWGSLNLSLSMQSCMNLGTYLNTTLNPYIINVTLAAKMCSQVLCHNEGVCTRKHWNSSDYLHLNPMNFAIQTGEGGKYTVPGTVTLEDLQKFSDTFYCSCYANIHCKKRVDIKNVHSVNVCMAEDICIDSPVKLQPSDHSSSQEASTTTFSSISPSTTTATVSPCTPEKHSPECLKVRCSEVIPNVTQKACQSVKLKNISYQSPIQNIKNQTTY
Description: The hyaluronidase inhibition assay was performed using hyaluronidase (1.5 mg/mL) and the substrate hyaluronic acid (1 mg/ml in 0.1 M acetate buffer; pH 3.5), according to a previous study. The reaction mixture was prepared consisting of 25 μL of CaCl2 (12.5 mM), 12.5 μL of each test sample (serial dilution), hyaluronidase (1.5 mg/mL), and 100 μL substrate hyaluronic acid. Afterwards, reaction mixture was placed in a water bath at 100°C for 3 min, and subsequently, 25 μL of 0.8 M KBO2 was added. After cooling to the room temperature, 800 μL DMAB (4 g DMAB in 40 mL acetic acid and 5 mL 10 N HCl) was added to the mixture following the incubation for 20 min. The absorbance was measured at 600 nm. Each measurement was made in triplicate. The percentage of hyaluronidase inhibition (%) was calculated according to the formula: inhibition (%) = [(Acontrol − Asample/Acontrol) × 100].
A sample: absorbance value of the hyaluronidase activity from samples or positive control (quercetin)
A control: absorbance value of the hyaluronidase activity from negative control (solution without samples)

DPPH assay = test: DPPH assay
Description: as §1

[3] = mean ± SD, read-out: Elastase IC50 (converted)

Row | SMILES | IC50 [1, 3] [µM] | Collagenase IC50 [2] [µg/mL] | further results
1 | O=C(O)[C@]1(O)C[C@@H](O)[C@@H](O)[C@H](O)C1 [Quinic acid] | 748 | 52.78 ± 1.8 | 
2 | O=c1c(O)c(-c2ccc(O)c(O)c2)oc2cc(O)cc(O)c12 [Quercetin] |  |  | FRAP (FRAP assay): 24.04 ± 1.23 mM FeSO4/mg extract
3 | O.Oc1cc(O)c2c(c1)O[C@H](c1ccc(O)c(O)c1)[C@@H](O)C2 [Catechin] |  | 29.33 ± 2.4 | Elastase IC50 ([1]; mean ± SD): 15.00 ± 5.9 µg/mL; Tyrosinase IC50 (mushroom tyrosinase): 22.54 ± 4.61 µg/mL; Hyaluronidase IC50 (hyaluronidase): 22.99 ± 0.2 µg/mL
4 | Oc1cc(O)c2c(c1)O[C@H](c1ccc(O)c(O)c1)[C@H](O)C2 [Epicatechin] | 145 | 65.96 ± 7.8 | 
5 | C[C@@H]1O[C@@H](OC[C@H]2O[C@@H](Oc3c(-c4ccc(O)c(O)c4)oc4cc(O)cc(O)c4c3=O)[C@H](O)[C@@H](O)[C@@H]2O)[C@H](O)[C@H](O)[C@H]1O [Rutin] | 199 | 63.46 ± 3.4 | 
6 | O=c1cc(CO)occ1O [Kojic acid, reference compound] |  |  | IC50 [1]: 152 µM
7 | O=C1O[C@H]([C@@H](O)CO)C(O)=C1O [Ascorbic acid] |  |  | DPPH (EC50) (DPPH assay): 2.92 ± 0.29 µg/mL
